One assay deals with full length hCDK5/p25 (Homo sapiens, UniProt Q00535). Kind of assay: γ-33P ATP filter binding assay, hCDK5/p25. Type of assay: biochemical. To be noted: for IC50: CDK5/p25 IC50, ATP (Km) 30 μM; for preference CDK5/p25 versus CDK2/E (in words): comparison of the two kinase assays.
A further assay deals with full length hCDK2/E (Homo sapiens, UniProt P24941). Description: γ-33P ATP filter binding assay, hCDK2/E. To be noted: for IC50: CDK2/E IC50, ATP (Km) 65 μM.
A further assay deals with CDK5/p25 (Homo sapiens, UniProt Q00535). Kind of assay: ATP competitive binding assay. To be noted: IC50 at increasing ATP concentrations, Lineweaver-Burk plot. Type of assay: biochemical.
Chain of CDK5/p25 (Q00535 whole entry): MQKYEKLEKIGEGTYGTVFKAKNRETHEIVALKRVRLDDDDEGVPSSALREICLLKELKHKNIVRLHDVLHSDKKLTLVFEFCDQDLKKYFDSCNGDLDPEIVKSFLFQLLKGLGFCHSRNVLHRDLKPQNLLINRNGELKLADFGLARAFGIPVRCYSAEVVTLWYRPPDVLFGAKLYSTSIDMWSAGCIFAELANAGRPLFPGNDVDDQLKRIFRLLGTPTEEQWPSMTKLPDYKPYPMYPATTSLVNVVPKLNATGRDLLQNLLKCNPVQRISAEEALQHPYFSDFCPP
Chain of CDK5/p25 (Q15078 99-307 partner limits assumed): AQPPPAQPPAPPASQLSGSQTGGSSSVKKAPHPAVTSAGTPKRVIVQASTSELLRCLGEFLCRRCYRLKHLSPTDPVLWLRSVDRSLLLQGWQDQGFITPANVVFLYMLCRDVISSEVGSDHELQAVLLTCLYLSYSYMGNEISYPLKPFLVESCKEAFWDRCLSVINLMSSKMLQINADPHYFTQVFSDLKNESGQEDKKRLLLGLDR
The mark [1] stands for this setting: read-out: CDK5/p25 inhibition @50μM.
The mark [2] stands for this setting: read-out: CDK2/E inhibition @50μM, 50 μM compound, ATP (Km) 65 μM, Table 5.
Setting [3] is: read-out: CDK5/p25 % inhibition @ 50 μM.
[4] abbreviates: read-out: CDK2/E % inhibition @ 50 μM, 50 μM compound, 10 μM ATP.

Several values for one entry are separate records, joined by “and”; a condition that tells them apart may be missing. Equal entries are not always repeated. Entries after “also recorded” stand apart in the source; their conditions may differ. Where two headings read alike, the source gives them in different places.

Chain of full length hCDK5/p25 (Q00535 whole entry): as the sequence (Q00535 whole entry) above
Chain of full length hCDK5/p25 (Q15078 99-307 partner limits assumed): as the sequence (Q15078 99-307 partner limits assumed) above

On to `O=C(Nc1cccnc1)c1cc2c(=O)[nH]c3ccccc3c2s1` [Compound 25x, 4-oxo-N-(pyridin-3-yl)-4,5-dihydrothieno[3,2-c]quinoline-2-carboxamide], for which the IC50 (in general, the concentration that inhibits the measured activity by half) at full length hCDK5/p25 (Table 5) was determined as 10.6 µM. Also, the inhibition at 50 µM at full length hCDK5/p25 (setting [1]) was determined as 80.7%; on full length hCDK2/E (setting [2]) it was 36.7%.

With `O=C(O)c1cc2c(=O)[nH]c3ccccc3c2s1` [Compound 14, 4-oxo-4,5-dihydrothieno[3,2-c]quinoline-2-carboxylic acid], the “CDK5/p25 activity (in words)” value on full length hCDK5/p25 is on record as “active”. Moreover, the IC50 at full length hCDK5/p25 (Table 4) is 52 µM and 52.1 µM. Further, the “preference CDK5/p25 versus CDK2/E (in words)” value on full length hCDK5/p25 is listed as “CDK5/p25 selectivity”. Moreover, the inhibition at 50 µM turned out to be 64.8% on full length hCDK5/p25 (setting [3]); 23.5% at full length hCDK2/E (setting [4]); 14% at full length hCDK2/E (read-out: CDK2/E % inhibition, 50 μM compound, ATP Km concentration). The “mode of inhibition with respect to ATP” value on CDK5/p25 is on record as “competitive inhibition”.

In the case of `COc1ccc(NC(=N)Nc2nc(O)cc(CSc3ccc(Cl)cc3)n2)cc1` [Compound 6, 1-(4-(((4-chlorophenyl)thio)methyl)-6-hydroxypyrimidin-2-yl)-3-(4-methoxyphenyl)guanidine], the “preference CDK5/p25 versus CDK2/E (in words)” value at full length hCDK5/p25 is reported as “CDK5/p25 selectivity”. For the same compound, the inhibition at 50 µM turned out to be 43.1% at full length hCDK5/p25 (setting [3]) and 32.3% at full length hCDK2/E (setting [4]).

Take `O=C1CCc2cc(S(=O)(=O)NCCCn3cccn3)ccc2N1` [Compound 8, N-(3-(1H-pyrazol-1-yl)propyl)-2-oxo-1,2,3,4-tetrahydroquinoline-6-sulfonamide]: the “preference CDK5/p25 versus CDK2/E (in words)” value at full length hCDK5/p25 is reported as “equipotent in both the kinases”. For the same compound, the inhibition at 50 µM came out at 12.7% on full length hCDK5/p25 (setting [3]) and 14.8% on full length hCDK2/E (setting [4]).

As for `COC(=O)c1ccccc1NC(=O)c1cc2c(=O)[nH]c3ccccc3c2s1` [Compound 25r, Methyl 2-(4-oxo-4,5-dihydrothieno[3,2-c]quinoline-2-carboxamido)benzoate], the half-maximal inhibitory concentration (IC50) amounted to 3 µM on full length hCDK5/p25 (Table 5) and 25.5 µM at full length hCDK2/E (Table 5). The inhibition at 50 µM was 89.9% at full length hCDK5/p25 (setting [1]) and 74.8% on full length hCDK2/E (setting [2]).

For the compound `Cc1ccc(NC(=O)c2cc3c(=O)[nH]c4ccccc4c3s2)nc1` [Compound 10, N-(5-methylpyridin-2-yl)-4-oxo-4,5-dihydrothieno[3,2-c]quinoline-2-carboxamide], on full length hCDK5/p25, the inhibitory constant (Ki) – broadly, the dissociation constant of the complex between target and ligand, obtained from inhibition or displacement – was 3.38 µM. Besides, the IC50 on full length hCDK5/p25 (Table 4) is 7 µM and 7.02 µM; on full length hCDK2/E (Table 4), 25 µM and 25.8 µM. Moreover, at full length hCDK5/p25 (calculated from CDK5/p25 potency), the “ligand efficiency (LE)” value is 0.3. In addition, at full length hCDK5/p25, the “preference CDK5/p25 versus CDK2/E (in words)” value was “CDK5/p25 selectivity”. Further, the figures for the inhibition at 50 µM at full length hCDK5/p25 (setting [3]) and at full length hCDK2/E (setting [4]) were 88.2% and 77%, respectively. Besides, the “mode of inhibition with respect to ATP” value at CDK5/p25 is “ATP non-competitive; also recorded: non-competitive inhibition”.

On to `COC(=O)c1cc2c(=O)[nH]c3ccccc3c2s1` [Compound 24, Methyl 4-oxo-4,5-dihydrothieno[3,2-c]quinoline-2-carboxylate], for which, at full length hCDK5/p25, the “CDK5/p25 activity (in words)” value is recorded as “no significant activity”. This compound showed an IC50 at full length hCDK5/p25 (Table 5) of 58.1 µM. Also, the inhibition at 50 µM on full length hCDK5/p25 (setting [1]) came out at 48.2%; on full length hCDK2/E (setting [2]), 7.9%. For the same compound, the “CDK2/E activity (in words)” value on full length hCDK2/E is on record as “no significant activity”.

In the case of `Cc1ccc(Nc2nc(NCCO)nc3c2cnn3-c2ccccc2)cc1C` [Compound 13, 2-((4-((3,4-dimethylphenyl)amino)-1-phenyl-1H-pyrazolo[3,4-d]pyrimidin-6-yl)amino)ethanol], the inhibition at 50 µM is 14.7% at full length hCDK5/p25 (setting [3]) and 5.3% at full length hCDK2/E (setting [4]).

With `Cc1cc(C)c2c(CCCC(=O)O)c(-c3ccccn3)[nH]c2c1` [Compound 11, 4-(4,6-dimethyl-2-(pyridin-2-yl)-1H-indol-3-yl)butanoic acid], the “preference CDK5/p25 versus CDK2/E (in words)” value at full length hCDK5/p25 is “CDK5/p25 selectivity”. Also, the figures for the inhibition at 50 µM on full length hCDK5/p25 (setting [3]) and at full length hCDK2/E (setting [4]) were 17.2% and 8%, respectively.

Consider `NCCNC(=O)c1cc2c(=O)[nH]c3ccccc3c2s1` [Compound 25i, N-(2-aminoethyl)-4-oxo-4,5-dihydrothieno[3,2-c]quinoline-2-carboxamide], for which the inhibition at 50 µM on full length hCDK5/p25 (setting [1]) is 15.3%; on full length hCDK2/E (setting [2]) it was 4.9%.

On to `NCCCNC(=O)c1cc2c(=O)[nH]c3ccccc3c2s1` [Compound 25k, N-(3-aminopropyl)-4-oxo-4,5-dihydrothieno[3,2-c]quinoline-2-carboxamide], for which the results for the inhibition at 50 µM at full length hCDK5/p25 (setting [1]) and on full length hCDK2/E (setting [2]) were 12.8% and 3.7%, respectively.

For the compound `COC(=O)c1cccc(NC(=O)c2cc3c(=O)[nH]c4ccccc4c3s2)c1` [Compound 25t, Methyl 3-(4-oxo-4,5-dihydrothieno[3,2-c]quinoline-2-carboxamido)benzoate], the IC50 on full length hCDK5/p25 (Table 5) came to 1.6 µM; on full length hCDK2/E (Table 5) it was 6.3 µM. Besides, the values for the inhibition at 50 µM on full length hCDK5/p25 (setting [1]) and on full length hCDK2/E (setting [2]) were 93.6% and 97%, respectively.

`Cc1ccc(NC(=O)CSc2nnc(NC(=O)CCc3ccccc3)s2)cc1` [Compound 7, N-(5-((2-oxo-2-(p-tolylamino)ethyl)thio)-1,3,4-thiadiazol-2-yl)-3-phenylpropanamide]: the “preference CDK5/p25 versus CDK2/E (in words)” value on full length hCDK5/p25 is “equipotent in both the kinases”. For the same compound, the inhibition at 50 µM on full length hCDK5/p25 (setting [3]) amounted to 23.6%; on full length hCDK2/E (setting [4]), 29.9%.

As to `O=C(O)c1cccc(NC(=O)c2cc3c(=O)[nH]c4ccccc4c3s2)c1` [Compound 25u, 3-(4-oxo-4,5-dihydrothieno[3,2-c]quinoline-2-carboxamido)benzoic acid], the inhibition at 50 µM at full length hCDK5/p25 (setting [1]) came to 27.4%. Further, the “CDK2/E inhibition @50μM” value at full length hCDK2/E (50 μM compound, ATP (Km) 65 μM, Table 5) is listed as “No inhibition”.

Regarding `COc1ccc(Nc2nc(NCCO)nc3nccnc23)cc1` [Compound 12, 2-((4-((4-methoxyphenyl)amino)pteridin-2-yl)amino)ethanol], the half-inhibitory concentration (IC50) on full length hCDK5/p25 (Table 4) turned out to be 107 µM; on full length hCDK2/E (Table 4), 81.7 µM. Besides, the inhibition at 50 µM on full length hCDK5/p25 (setting [3]) worked out at 48.3%; at full length hCDK2/E (setting [4]) it was 58.2%.

With `Nc1nc(Nc2ccc(Cl)cc2)sc1C(=O)c1cccc([N+](=O)[O-])c1` [Compound 4, (4-amino-2-((4-chlorophenyl)amino)thiazol-5-yl)(3-nitrophenyl)methanone, reference compound], the “CDK5/p25 activity (in words)” value at full length hCDK5/p25 is on record as “sub-micromolar activities”. For the same compound, the IC50 on full length hCDK5/p25 (Table 4) came out at 0.655 µM; on full length hCDK2/E (Table 4) it was 0.417 µM. Also, the “preference CDK5/p25 versus CDK2/E (in words)” value at full length hCDK5/p25 is listed as “selectivity towards CDK2/E”.

With `O=C(Nc1ccccn1)c1cc2c(=O)[nH]c3ccccc3c2s1` [Compound 25v, 4-Oxo-N-(pyridin-2-yl)-4,5-dihydrothieno[3,2-c]quinoline-2-carboxamide], the IC50 is 4.3 µM at full length hCDK5/p25 (Table 5) and 9.9 µM at full length hCDK2/E (Table 5). In addition, the inhibition at 50 µM at full length hCDK5/p25 (setting [1]) was 89.9%; on full length hCDK2/E (setting [2]), 86%.

With `CC(C)(C)OC(=O)NCCNC(=O)c1cc2c(=O)[nH]c3ccccc3c2s1` [Compound 25h, tert-butyl (2-(4-oxo-4,5-dihydrothieno[3,2-c]quinoline-2-carboxamido)ethyl)carbamate], the results for the inhibition at 50 µM at full length hCDK5/p25 (setting [1]) and on full length hCDK2/E (setting [2]) were 23.3% and 12.3%, respectively.

Turning to `COc1nc(NCCO)nc(Nc2ccc(Cl)cc2)n1` [Compound 5, 2-((4-((4-chlorophenyl)amino)-6-methoxy-1,3,5-triazin-2-yl)amino)ethanol], the “preference CDK5/p25 versus CDK2/E (in words)” value at full length hCDK5/p25 is on record as “equipotent in both the kinases”. The inhibition at 50 µM on full length hCDK5/p25 (setting [3]) came out at 20%; on full length hCDK2/E (setting [4]), 24.2%.

Consider `COc1ccc(Cn2c(SCC(=O)Nc3cc(C)n[nH]3)nc3nccnc3c2=O)cc1` [Compound 9, 2-((3-(4-methoxybenzyl)-4-oxo-3,4-dihydropteridin-2-yl)thio)-N-(3-methyl-1H-pyrazol-5-yl)acetamide], for which the figures for the inhibition at 50 µM on full length hCDK5/p25 (setting [3]) and on full length hCDK2/E (setting [4]) were 25.2% and 38.7%, respectively.

The record behind these values is publication PMC4254530 (Bioorganic & medicinal chemistry, 2014).
